#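 96-well plates; 48 h exposure; 5 concentrations. Endpoints by linear interpolation between flanking doses. Not reached: highest tested concentration assigned. GI50 marks 50% less growth.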 Activity calls are given as the source filed them. Rule as the data show it: active = GI50 up to about 1.1 µM and inactive = higher.
# How the values were obtained:
# Assay in all cases: NCI-60 cell line screen, 48 h
# 786-0 = system: 786-0
# A498 = system: A498
# A549 = system: A549
# ACHN = system: ACHN
# CAKI-1 = system: CAKI-1
# CCRF-CEM = system: CCRF-CEM
# COLO 205 = system: COLO 205
# DLD-1 = system: DLD-1
# DMS-114 = system: DMS-114
# DMS-273 = system: DMS-273
# EKVX = system: EKVX
# HCC 2998 = system: HCC 2998
# HCT-116 = system: HCT-116
# HCT-15 = system: HCT-15
# HL-60 = system: HL-60
# HOP-18 = system: HOP-18
# HOP-62 = system: HOP-62
# HT-29 = system: HT-29
# IGROV-1 = system: IGROV-1
# K562 = system: K562
# KM-20L2 = system: KM-20L2
# KM12 = system: KM12
# LOX IMVI = system: LOX IMVI
# LXFL 529 = system: LXFL 529
# M14 = system: M14
# M19-MEL = system: M19-MEL
# MOLT-4 = system: MOLT-4
# Malme-3M = system: Malme-3M
# NCI-H226 = system: NCI-H226
# NCI-H23 = system: NCI-H23
# NCI-H460 = system: NCI-H460
# NCI-H522 = system: NCI-H522
# OVCAR-3 = system: OVCAR-3
# OVCAR-4 = system: OVCAR-4
# OVCAR-5 = system: OVCAR-5
# OVCAR-8 = system: OVCAR-8
# RXF 393 = system: RXF 393
# SF-268 = system: SF-268
# SF-295 = system: SF-295
# SK-MEL-28 = system: SK-MEL-28
# SK-MEL-2 = system: SK-MEL-2
# SK-MEL-5 = system: SK-MEL-5
# SK-OV-3 = system: SK-OV-3
# SN12C = system: SN12C
# SNB-19 = system: SNB-19
# SNB-75 = system: SNB-75
# SR = system: SR
# SW-620 = system: SW-620
# TK-10 = system: TK-10
# U-251 = system: U-251
# UACC-257 = system: UACC-257
# UACC-62 = system: UACC-62
# UO-31 = system: UO-31
# HOP-92 = system: HOP-92
# RPMI-8226 = system: RPMI-8226
# SF-539 = system: SF-539
# SNB-78 = system: SNB-78
# BT-549 = system: BT-549
# DU-145 = system: DU-145
# Hs-578T = system: Hs-578T
# MDA-MB-231 = system: MDA-MB-231
# MDA-MB-435 = system: MDA-MB-435
# MDA-N = system: MDA-N
# PC-3 = system: PC-3
# T47D = system: T47D
# XF498 = system: XF498
structure (smiles),measurement,setting,value
N#CC1CC2(C(=O)C1=O)c1ccccc1-c1ccccc12 (stereo unspecified),GI50,786-0,> 100 µM (inactive)
same,GI50,A498,> 100 µM (inactive)
same,GI50,A549,> 100 µM (inactive)
same,GI50,ACHN,> 100 µM (inactive)
same,GI50,CAKI-1,> 100 µM (inactive)
same,GI50,CCRF-CEM,67.5 µM (inactive)
same,GI50,COLO 205,> 100 µM (inactive)
same,GI50,DLD-1,> 100 µM (inactive)
same,GI50,DMS-114,> 100 µM (inactive)
same,GI50,DMS-273,> 100 µM (inactive)
same,GI50,EKVX,> 100 µM (inactive)
same,GI50,HCC 2998,> 100 µM (inactive)
same,GI50,HCT-116,> 100 µM (inactive)
same,GI50,HCT-15,> 100 µM
same,GI50,HL-60,> 100 µM (inactive)
same,GI50,HOP-18,82 µM (inactive)
same,GI50,HOP-62,> 100 µM (inactive)
same,GI50,HT-29,> 100 µM (inactive)
same,GI50,IGROV-1,> 100 µM (inactive)
same,GI50,K562,86.1 µM (inactive)
same,GI50,KM-20L2,> 100 µM (inactive)
same,GI50,KM12,> 100 µM (inactive)
same,GI50,LOX IMVI,> 100 µM (inactive)
same,GI50,LXFL 529,> 100 µM (inactive)
same,GI50,M14,> 100 µM (inactive)
same,GI50,M19-MEL,> 100 µM (inactive)
same,GI50,MOLT-4,> 100 µM (inactive)
same,GI50,Malme-3M,> 100 µM (inactive)
same,GI50,NCI-H226,> 100 µM (inactive)
same,GI50,NCI-H23,> 100 µM (inactive)
same,GI50,NCI-H460,> 100 µM (inactive)
same,GI50,NCI-H522,> 100 µM (inactive)
same,GI50,OVCAR-3,87.7 µM (inactive)
same,GI50,OVCAR-4,> 100 µM (inactive)
same,GI50,OVCAR-5,> 100 µM (inactive)
same,GI50,OVCAR-8,> 100 µM (inactive)
same,GI50,RXF 393,> 100 µM (inactive)
same,GI50,SF-268,> 100 µM (inactive)
same,GI50,SF-295,> 100 µM (inactive)
same,GI50,SK-MEL-28,> 100 µM (inactive)
same,GI50,SK-MEL-2,> 100 µM (inactive)
same,GI50,SK-MEL-5,> 100 µM (inactive)
same,GI50,SK-OV-3,> 100 µM (inactive)
same,GI50,SN12C,> 100 µM (inactive)
same,GI50,SNB-19,> 100 µM (inactive)
same,GI50,SNB-75,> 100 µM (inactive)
same,GI50,SR,> 100 µM (inactive)
same,GI50,SW-620,> 100 µM (inactive)
same,GI50,TK-10,> 100 µM (inactive)
same,GI50,U-251,> 100 µM (inactive)
same,GI50,UACC-257,> 100 µM (inactive)
same,GI50,UACC-62,> 100 µM (inactive)
same,GI50,UO-31,> 100 µM (inactive)
O=[N+]([O-])c1cccc(S(=O)(=O)N/N=C/c2cc(I)cc([N+](=O)[O-])c2O)c1,GI50,786-0,31.8 µM (inactive)
same,GI50,A498,> 100 µM (inactive)
same,GI50,A549,> 100 µM (inactive)
same,GI50,ACHN,31.5 µM (inactive)
same,GI50,CAKI-1,20.3 µM (inactive)
same,GI50,CCRF-CEM,20.1 µM (inactive)
same,GI50,COLO 205,16.5 µM (inactive)
same,GI50,DLD-1,42.5 µM (inactive)
same,GI50,DMS-114,21.6 µM (inactive)
same,GI50,DMS-273,25.6 µM (inactive)
same,GI50,EKVX,29 µM (inactive)
same,GI50,HCC 2998,57 µM (inactive)
same,GI50,HCT-116,27.9 µM (inactive)
same,GI50,HCT-15,24.5 µM
same,GI50,HL-60,21.3 µM (inactive)
same,GI50,HOP-18,29.6 µM (inactive)
same,GI50,HOP-62,26.7 µM (inactive)
same,GI50,HOP-92,16.8 µM (inactive)
same,GI50,HT-29,26.7 µM (inactive)
same,GI50,IGROV-1,36.3 µM (inactive)
same,GI50,K562,29.8 µM (inactive)
same,GI50,KM-20L2,43 µM (inactive)
same,GI50,KM12,32.4 µM (inactive)
same,GI50,LOX IMVI,27.9 µM (inactive)
same,GI50,LXFL 529,21.5 µM (inactive)
same,GI50,M14,27.2 µM (inactive)
same,GI50,M19-MEL,34.8 µM (inactive)
same,GI50,MOLT-4,31.5 µM (inactive)
same,GI50,Malme-3M,25.9 µM (inactive)
same,GI50,NCI-H23,22 µM (inactive)
same,GI50,NCI-H460,34 µM (inactive)
same,GI50,NCI-H522,18.8 µM (inactive)
same,GI50,OVCAR-3,21.4 µM (inactive)
same,GI50,OVCAR-4,27.9 µM (inactive)
same,GI50,OVCAR-5,40.1 µM (inactive)
same,GI50,OVCAR-8,25.6 µM (inactive)
same,GI50,RPMI-8226,37 µM (inactive)
same,GI50,RXF 393,26.4 µM (inactive)
same,GI50,SF-268,30.1 µM (inactive)
same,GI50,SF-295,32.7 µM (inactive)
same,GI50,SF-539,23.8 µM (inactive)
same,GI50,SK-MEL-28,27.7 µM (inactive)
same,GI50,SK-MEL-2,19.7 µM (inactive)
same,GI50,SK-MEL-5,22.7 µM (inactive)
same,GI50,SK-OV-3,26.5 µM (inactive)
same,GI50,SN12C,24.2 µM (inactive)
same,GI50,SNB-19,23.9 µM (inactive)
same,GI50,SNB-75,22.4 µM (inactive)
same,GI50,SNB-78,22 µM (inactive)
same,GI50,SR,26.9 µM (inactive)
same,GI50,SW-620,22 µM (inactive)
same,GI50,TK-10,29.2 µM (inactive)
same,GI50,U-251,20.9 µM (inactive)
same,GI50,UACC-257,25.2 µM (inactive)
same,GI50,UACC-62,22 µM (inactive)
same,GI50,UO-31,26.1 µM (inactive)
CO[C@H](C(=O)[C@@H](O)[C@@H](C)O)[C@@H]1Cc2cc3cc(OC4CC(OC5CC(O)C(O)C(C)O5)C(O)C(C)O4)c(C)c(O)c3c(O)c2C(=O)[C@H]1OC1CC(OC2CC(OC3CC(C)(O)C(O)C(C)O3)C(O)C(C)O2)C(O)C(C)O1 (stereo partly specified),GI50,786-0,0.00927 µM (active)
same,GI50,BT-549,0.00689 µM (active)
same,GI50,CAKI-1,0.125 µM (active)
same,GI50,DLD-1,0.334 µM (active)
same,GI50,DMS-114,0.348 µM (active)
same,GI50,DMS-273,0.348 µM (active)
same,GI50,DU-145,0.0438 µM (active)
same,GI50,HCT-116,0.125 µM (active)
same,GI50,HL-60,0.128 µM (active)
same,GI50,HOP-18,0.125 µM (active)
same,GI50,Hs-578T,0.00331 µM (active)
same,GI50,KM-20L2,0.348 µM (active)
same,GI50,M14,0.0196 µM (active)
same,GI50,M19-MEL,0.314 µM (active)
same,GI50,MDA-MB-231,0.0495 µM (active)
same,GI50,MDA-MB-435,0.0197 µM (active)
same,GI50,MDA-N,0.0128 µM (active)
same,GI50,NCI-H226,0.125 µM (active)
same,GI50,OVCAR-8,0.176 µM (active)
same,GI50,PC-3,0.0284 µM (active)
same,GI50,SF-539,0.125 µM (active)
same,GI50,SNB-19,0.125 µM (active)
same,GI50,SNB-78,0.395 µM (active)
same,GI50,SR,0.00526 µM (active)
same,GI50,T47D,0.00406 µM (active)
same,GI50,TK-10,0.129 µM (active)
same,GI50,XF498,0.314 µM (active)
